Results as given in patent US20230330254A1 (Regeneron Pharmaceuticals, Inc., priority 2022, published 2023).
Where two headings read alike, the source gives them in different places.

Tests used:
[1] = Plasma stability of payloads and linker-payloads, mouse plasma; assay type: in vitro ADME; settings: mouse, pooled plasma
Experimental: The plasma stability of payloads and linker payloads of the disclosure were measured. For the assay, pooled frozen plasma (human, mouse or monkey) was thawed in cold water or a 37° C. water bath prior to experiment. Plasma was centrifuged at 4000 rpm for 5 min if any clots were observed, they were subsequently removed. If required, the pH was adjusted to 7.4±0.1. For the preparation of compounds and positive controls, a 1 mM intermediate solution was prepared by diluting 10 μL of their stock solution with 90 μL DMSO; a 1 mM intermediate solution of the positive control (Propantheline) was prepared by diluting 10 μL of its stock solution with 90 μL ultrapure water. Subsequently, 100 μM dosing solution for each compound was prepared by diluting 20 μL of the intermediate solution (1 mM) with 180 μL 45% MeOH/H2O. 98 μL of plasma was spiked with 2 μL of dosing solution (100 μM) to achieve the final concentration of 2 μM in duplicate. Samples were then incubated at 37° C. in a water bath. […] At each time point, 400 μL of stop solution (200 ng/mL tolbutamide plus 200 ng/mL labetalol in 50% ACN/MeOH) was added to precipitate protein and mixed thoroughly. Sample plates were then centrifuged at 4,000 rpm for 10 min. An aliquot of supernatant (50 μL) was transferred from each well and mixed with 100 μL ultrapure water. The samples were then shaken at 800 rpm for approximately 10 min before submitting for LC-MS/MS analysis.

[2] = system: Salmonella typhimurium TA98 and TA100; assay: Mini-Ames assay; assay type: cell-based
Experimental: The objective of this Mini-Ames study was to evaluate the test article LP11, for its ability to induce reverse mutations in the genome of strains of Salmonella typhimurium TA98 and TA100 in the presence and absence of metabolic activation (S9 mixture).
The Mini-Ames assay was conducted for the test article in the presence and absence of the S9 mixture, concurrently with the negative/solvent control (DMSO) using six wells and positive controls (2 μg/well TA98 alone, 0.2 μg/well TA100 alone or 0.4 μg/well TA98+TA100 in the presence of S9) using three wells. The tested dose levels for the test article, in the presence and absence of S9 mix, were 1000, 400, 160, 64, 25, 10, 4, and 1.5 μg per well, with each dose tested in triplicate. The study was conducted using fresh cultures of the bacterial strains and fresh test article formulations.

[3] = Plasma protein binding (equilibrium dialysis); assay type: in vitro ADME, human
Experimental: The pH value of the resulting plasma was checked
(<http://www.htdialysis.com/>).
DMSO working solutions were prepared at 400 μM. […] These samples were transferred into new 96-well plates.

[4] = target: T1, human glucagon-like peptide 2 receptor (GLP2R) (Homo sapiens, UniProt O95838); assay: CRE-luciferase reporter assay, HEK293/Myc-hGLP2R/Cre-Luc (Example 9); assay type: cell-based; settings: Table 5C
T1 construct: full-length human GLP1R, cynomolgus GLP1R, human glucagon receptor (GCGR), human glucagon-like peptide 2 receptor (GLP2R); expressed in transfected cells; host or cells: HEK293/CRE-Luc
T1 sequence (O95838 1-553): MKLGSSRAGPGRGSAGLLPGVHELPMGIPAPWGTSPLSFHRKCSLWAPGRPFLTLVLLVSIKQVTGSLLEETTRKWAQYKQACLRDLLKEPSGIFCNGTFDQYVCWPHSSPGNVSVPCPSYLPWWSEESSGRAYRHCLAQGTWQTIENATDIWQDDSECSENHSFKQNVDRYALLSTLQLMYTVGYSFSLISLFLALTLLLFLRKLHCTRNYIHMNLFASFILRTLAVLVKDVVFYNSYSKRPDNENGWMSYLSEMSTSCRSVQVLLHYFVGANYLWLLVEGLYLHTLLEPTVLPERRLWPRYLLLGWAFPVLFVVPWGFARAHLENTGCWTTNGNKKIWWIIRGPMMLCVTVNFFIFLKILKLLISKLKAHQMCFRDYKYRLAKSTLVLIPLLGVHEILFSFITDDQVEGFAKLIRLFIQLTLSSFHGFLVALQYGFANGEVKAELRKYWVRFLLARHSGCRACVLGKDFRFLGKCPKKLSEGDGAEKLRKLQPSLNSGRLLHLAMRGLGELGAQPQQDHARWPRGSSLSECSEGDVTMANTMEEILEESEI
Experimental: (§1) To test the activity of GLP1R agonist payloads and GLP1R agonist linker-payloads (LPs) in vitro, a cell-based cAMP responsive luciferase reporter assay was developed.
(§2) Cells were incubated overnight at 37° C. in 5% CO2. […] Plates were incubated for 5.5 h at 37° C. in 5% CO2. For end-point measurement, 100 μL/well of One-Glo reagent (Promega, #E6051) was added and plates were kept at room temperature for 5-10 minutes. Luciferase activity was measured on Envision Multilabel Plate Reader (Perkin Elmer) in Luminescent mode. The relative light units (RLU) values were obtained and the results were analyzed using nonlinear regression with GraphPad Prism software (GraphPad).

[5] = target: T2, human glucagon receptor (GCGR) (Homo sapiens, UniProt P47871); assay: CRE-luciferase reporter assay, HEK293/Myc-hGCGR/Cre-Luc (Example 9); assay type: cell-based; settings: Table 5C
T2 construct: full-length human GLP1R, cynomolgus GLP1R, human glucagon receptor (GCGR); expressed in transfected cells; host or cells: HEK293/CRE-Luc
T2 sequence (P47871 26-477): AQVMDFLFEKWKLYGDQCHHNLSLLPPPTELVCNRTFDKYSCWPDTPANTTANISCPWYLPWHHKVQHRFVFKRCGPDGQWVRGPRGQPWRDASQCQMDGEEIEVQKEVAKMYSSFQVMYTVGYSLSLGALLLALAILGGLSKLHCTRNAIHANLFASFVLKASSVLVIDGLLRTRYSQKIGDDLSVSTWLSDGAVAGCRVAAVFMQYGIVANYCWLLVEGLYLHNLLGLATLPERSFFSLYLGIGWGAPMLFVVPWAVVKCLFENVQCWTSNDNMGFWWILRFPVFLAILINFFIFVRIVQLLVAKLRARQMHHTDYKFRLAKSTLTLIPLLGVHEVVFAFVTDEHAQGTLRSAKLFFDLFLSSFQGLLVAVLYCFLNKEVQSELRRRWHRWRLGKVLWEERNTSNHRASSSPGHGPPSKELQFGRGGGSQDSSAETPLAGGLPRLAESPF
Experimental: as §1, §2

[6] = target: T1, human glucagon-like peptide 2 receptor (GLP2R); assay: Luciferase reporter assay, HEK293/CRE-Luc/hGLP2R (Example 17); assay type: cell-based; settings: Table 28; CRE-dependent luciferase reporter activity
human GLP1R = human GLP1R (Homo sapiens, UniProt P43220); assay: b-arrestin 2 recruitment assay, PathHunter CHO/b-arrestin 2/hGLP1R cells; assay type: cell-based; settings: read-out: CHO/b-arrestin 2/hGLP1R Emax (% GLP-1)
Sequence of human GLP1R (P43220 24-463): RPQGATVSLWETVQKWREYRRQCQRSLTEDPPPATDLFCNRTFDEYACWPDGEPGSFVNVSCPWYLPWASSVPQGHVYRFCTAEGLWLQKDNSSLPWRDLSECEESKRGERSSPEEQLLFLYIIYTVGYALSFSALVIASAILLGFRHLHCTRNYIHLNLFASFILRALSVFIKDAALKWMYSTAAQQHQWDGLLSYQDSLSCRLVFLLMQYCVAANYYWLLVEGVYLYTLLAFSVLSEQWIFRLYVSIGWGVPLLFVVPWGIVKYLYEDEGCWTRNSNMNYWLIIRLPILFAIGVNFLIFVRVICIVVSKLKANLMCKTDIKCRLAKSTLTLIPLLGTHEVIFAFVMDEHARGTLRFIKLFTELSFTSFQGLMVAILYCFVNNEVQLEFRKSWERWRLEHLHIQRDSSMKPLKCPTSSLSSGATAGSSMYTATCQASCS
Experimental: The b-arrestin 2 recruitment assay was performed following manufacter's instructions (Eurofins DiscoverX, #93-0300E2CP0M), with minor modifications. […] Serial dilutions of free payload and LP were performed in 100% DMSO, followed by 1:100 dilution in assay media. Test articles were added to cells (1:5 dilution) with the last well in each serial dilution series serving as a blank control containing only assay media for antibodies and ATLs or assay media with 0.2% DMSO for payload and LP. After a 90-minute incubation at 37° C., PathHunter Detection Reagent (Eurofins DiscoverX, #93-0300E2CP0M) was added to the wells followed by a 1-hour incubation at room temperature. RLUs were measured on EnVision Plate Reader (Perkin Elmer).
EC50 values for luminescence assays were determined using a four-parameter logistic equation over a 12-point dose response curve (GraphPad Prism).

SMILES	half-life at 2 µM ([1]; pH 7.4, Mouse, assay time 3 days, Table 5B, read-out: plasma stability T½)	half-life at 2 µM ([1]; pH 7.4, Table 5A, mouse plasma, tested time C (3 days), read-out: plasma stability T½ (hr), mouse)	half-life at 2 µM ([1]; pH 7.4, Table 5C, read-out: Plasma Stability Mouse T½)	fold increase in mean number of revertant colonies vs negative/solvent control [2]	mutagenicity (Mini-Ames conclusion) ([2]; TA98 and TA100, with and without S9)	Ames (TA98 and TA100) in the presence and absence of S9 ([2]; Table 5C)	cytotoxicity in Mini-Ames ([2]; any dose level (1.5-1000 μg per well), with or without S9 mix)	precipitates in Mini-Ames (naked eye after incubation) ([2]; any dose level, with or without S9 mix)	% Bound ([3]; Human Plasma, 4 hours dialysis)	% Unbound ([3]; Human Plasma, 4 hours dialysis)	recovery at 4 h, 2 µM ([3]; Human Plasma, 4 hours dialysis)	fraction unbound at 4 h, 2 µM ([3]; human, plasma, Table 5C)	GLP2R EC50 (nM) [4]	GCGR EC50 (nM) [5]	EC50 [6]	Emax (human GLP1R)
CCc1cc(OCCCCn2cc(COCCOCCOCCOCCOCCOCCOCCOCCN)nn2)ccc1-c1ccc(C[C@H](NC(=O)[C@H](CC(=O)O)NC(=O)[C@H](CO)NC(=O)[C@@H](NC(=O)C(C)(Cc2ccccc2F)NC(=O)[C@@H](NC(=O)CNC(=O)[C@H](Cc2nn[nH]n2)NC(=O)C(C)(C)C(=O)NCCc2cnc[nH]2)[C@@H](C)O)[C@@H](C)O)C(=O)N[C@@H](CCCc2cc(C)cc(C)c2)C(N)=O)cc1 (stereo partly shown) [LP11, NH2-PEG8-triazole-P8]	> 144 h	> 173 h	> 168 h	≤ 2.0 fold	negative for mutagenicity	Negative for mutagenicity	no obvious cytotoxicity	No obvious precipitates	97.97%	2.03%	89.2%	0.0203	Completely inactive	Completely inactive		
CCc1cc(OCCCCn2cc(COCCOCCOCCOCCOCCOCCOCCOCCN)nn2)ccc1-c1ccc(C[C@H](NC(=O)[C@H](CC(=O)O)NC(=O)[C@H](CO)NC(=O)[C@@H](NC(=O)[C@](C)(Cc2ccccc2F)NC(=O)[C@@H](NC(=O)CNC(=O)[C@H](Cc2nn[nH]n2)NC(=O)C(C)(C)C(=O)NCCc2cnc[nH]2)[C@@H](C)O)[C@@H](C)O)C(=O)N[C@@H](CCCc2cc(C)cc(C)c2)C(N)=O)cc1 [M3190]															> 0.2 µM	108%
